≈ marks a conversion by molar mass, not a printed value.
Legend:
Test in all cases: in vitro antibacterial evaluation, MIC by broth dilution
Type in all cases: cell-based
[1] = test system: Staphylococcus sp.; settings: broth dilution, 18 hours at 35° C.
Description: (§1) Methods for in vitro Antibacterial Evaluation (Table 1)
(§2) The minimum inhibitory concentration (MIC), the lowest concentration of the antibiotic which inhibits growth of the test organism, is determined by the broth dilution method using Muller-Hinton II […] (Baltimore Biological Laboratories) following the recommendations of the National Committee for Clinical Laboratory Standards [Methods for dilution antimicrobial susceptibility tests for bacteria that grow aerobically, approved standard M7-A2, National Committee for Clinical Laboratory Standards, Villanova, Pa.].
(§3) An inoculum level of 5×10^5 CFU/mL, and a range of antibiotic concentrations (64-0.06 μg/mL) is used. […] The test organisms include a spectrum of Gram-positive bacteria comprised of Staphylococcus sp., Streptococcus sp. and Enterococcus sp. These organisms include recent clinical isolates that are resistant to methicillin, penicillin and/or vancomycin.

[2] = test system: Enterococcus sp.; settings: broth dilution, 18 hours at 35° C.
Description: as §1, §2, §3

[3] = test system: Streptococcus sp.; settings: broth dilution, 18 hours at 35° C.
Description: as §1, §2, §3

[4] = test system: Escherichia coli; settings: 18 hours at 35° C.

CC(c1ccccc1)C1NC(=O)CNC(=O)C(CO)NC(=O)C(C(O)C2CN(c3ncccn3)C(=N)N2C2OC(CO)C(O)C(O)C2O)NC(=O)C(C(O)C2CNC(=Nc3ncccn3)N2)NC(=O)C(Cc2ccc(OC3OC(CO)C(OC4OC5COC6(OC5C(O)C4O)C4CC5CC(C4)CC6C5)C(O)C3O)cc2)NC1=O (stereo not drawn) [Example 228]
MIC Coagulase Negative Staphylococcus (GC 4547) [1]: 16 µg/mL (≈ 10.1 µM) | MIC Coagulase Negative Staphylococcus (GC 4548) [1]: 16 µg/mL (≈ 10.1 µM) | MIC Coagulase Negative Staphylococcus (GC 4549) [1]: 16 µg/mL (≈ 10.1 µM) | MIC Coagulase Negative Staphylococcus (GC 4551) [1]: 16 µg/mL (≈ 10.1 µM) | MIC Staphylococcus aureus-SMITH (GC 4543) [1]: 32 µg/mL (≈ 20.2 µM) | MIC Staphylococcus haemolyticus (GC 4546) [1]: 16 µg/mL (≈ 10.1 µM) | MIC Staphylococcus aureus-SMITH (GC 4543) ([1]; strain GC 4543): 32 µg/mL (≈ 20.2 µM) | MIC Staphylococcus haemolyticus (GC 4546) ([1]; strain GC 4546): 16 µg/mL (≈ 10.1 µM) | MIC Coagulase Negative Staphylococcus (GC 4547) ([1]; strain GC 4547): 16 µg/mL (≈ 10.1 µM) | MIC Coagulase Negative Staphylococcus (GC 4548) ([1]; strain GC 4548): 16 µg/mL (≈ 10.1 µM) | MIC Coagulase Negative Staphylococcus (GC 4549) ([1]; strain GC 4549): 16 µg/mL (≈ 10.1 µM) | MIC Coagulase Negative Staphylococcus (GC 4551) ([1]; strain GC 4551): 16 µg/mL (≈ 10.1 µM) | MIC Staphylococcus aureus (ATCC 29213) ([1]; strain ATCC 29213): 32 µg/mL (≈ 20.2 µM) | MIC Staphylococcus aureus (GC 1131) ([1]; strain GC 1131): 32 µg/mL (≈ 20.2 µM) | MIC Staphylococcus aureus (GC 3051) ([1]; strain GC 3051): 32 µg/mL (≈ 20.2 µM) | MIC Staphylococcus aureus (GC 3053) ([1]; strain GC 3053): 32 µg/mL (≈ 20.2 µM) | MIC Staphylococcus aureus (GC 4541) ([1]; strain GC 4541): 32 µg/mL (≈ 20.2 µM) | MIC Staphylococcus aureus (GC 4542) ([1]; strain GC 4542): 32 µg/mL (≈ 20.2 µM) | MIC Staphylococcus aureus (GC 4544) ([1]; strain GC 4544): 32 µg/mL (≈ 20.2 µM) | MIC Staphylococcus aureus (GC 4545) ([1]; strain GC 4545): 32 µg/mL (≈ 20.2 µM) | MIC Enterococcus avium (GC 4558) [2]: 8 µg/mL (≈ 5.05 µM) | MIC Enterococcus faecalis (ATCC 29212) [2]: 32 µg/mL (≈ 20.2 µM) | MIC Enterococcus faecalis (GC 2242) [2]: 32 µg/mL (≈ 20.2 µM) | MIC Enterococcus faecalis (GC 2691) [2]: 32 µg/mL (≈ 20.2 µM) | MIC Enterococcus faecalis (GC 3059) [2]: 32 µg/mL (≈ 20.2 µM) | MIC Enterococcus faecalis (GC 4552) [2]: 32 µg/mL (≈ 20.2 µM) | MIC Enterococcus faecalis (GC 4553) [2]: 16 µg/mL (≈ 10.1 µM) | MIC Enterococcus faecalis (GC 4554) [2]: 32 µg/mL (≈ 20.2 µM) | MIC Enterococcus faecalis (GC 6189) [2]: 32 µg/mL (≈ 20.2 µM) | MIC Enterococcus faecium (GC 2243) [2]: 16 µg/mL (≈ 10.1 µM) | MIC Enterococcus faecium (GC 4556) [2]: 32 µg/mL (≈ 20.2 µM) | MIC Enterococcus faecium (GC 4557) [2]: 16 µg/mL (≈ 10.1 µM) | MIC Enterococcus faecalis (ATCC 29212) ([2]; inoculum 5×10^5 CFU/mL, strain ATCC 29212): 32 µg/mL (≈ 20.2 µM) | MIC Enterococcus faecalis (GC 2242) ([2]; inoculum 5×10^5 CFU/mL, strain GC 2242): 32 µg/mL (≈ 20.2 µM) | MIC Enterococcus faecium (GC 2243) ([2]; inoculum 5×10^5 CFU/mL, strain GC 2243): 16 µg/mL (≈ 10.1 µM) | MIC Enterococcus faecalis (GC 2691) ([2]; inoculum 5×10^5 CFU/mL, strain GC 2691): 32 µg/mL (≈ 20.2 µM) | MIC Enterococcus faecalis (GC 3059) ([2]; inoculum 5×10^5 CFU/mL, strain GC 3059): 32 µg/mL (≈ 20.2 µM) | MIC Enterococcus faecalis (GC 4552) ([2]; inoculum 5×10^5 CFU/mL, strain GC 4552): 32 µg/mL (≈ 20.2 µM) | MIC Enterococcus faecalis (GC 4553) ([2]; inoculum 5×10^5 CFU/mL, strain GC 4553): 16 µg/mL (≈ 10.1 µM) | MIC Enterococcus faecalis (GC 4554) ([2]; inoculum 5×10^5 CFU/mL, strain GC 4554): 32 µg/mL (≈ 20.2 µM) | MIC Enterococcus faecium (GC 4556) ([2]; inoculum 5×10^5 CFU/mL, strain GC 4556): 32 µg/mL (≈ 20.2 µM) | MIC Enterococcus faecium (GC 4557) ([2]; inoculum 5×10^5 CFU/mL, strain GC 4557): 16 µg/mL (≈ 10.1 µM) | MIC Enterococcus avium (GC 4558) ([2]; inoculum 5×10^5 CFU/mL, strain GC 4558): 8 µg/mL (≈ 5.05 µM) | MIC Enterococcus faecalis (GC 6189) ([2]; inoculum 5×10^5 CFU/mL, strain GC 6189): 32 µg/mL (≈ 20.2 µM) | MIC Streptococcus agalactiae (GC 4564) [3]: 16 µg/mL (≈ 10.1 µM) | MIC Streptococcus pneumoniae (ATCC 6301) [3]: 8 µg/mL (≈ 5.05 µM) | MIC Streptococcus pneumoniae (GC 1894) [3]: 8 µg/mL (≈ 5.05 µM) | MIC Streptococcus pneumoniae (GC 4565) [3]: 8 µg/mL (≈ 5.05 µM) | MIC Streptococcus pyogenes (GC 4563) [3]: 8 µg/mL (≈ 5.05 µM) | MIC Streptococcus pneumoniae (ATCC 6301) ([3]; inoculum 5×10^5 CFU/mL, strain ATCC 6301): 8 µg/mL (≈ 5.05 µM) | MIC Streptococcus pneumoniae (GC 1894) ([3]; inoculum 5×10^5 CFU/mL, strain GC 1894): 8 µg/mL (≈ 5.05 µM) | MIC Streptococcus pyogenes (GC 4563) ([3]; inoculum 5×10^5 CFU/mL, strain GC 4563): 8 µg/mL (≈ 5.05 µM) | MIC Streptococcus agalactiae (GC 4564) ([3]; inoculum 5×10^5 CFU/mL, strain GC 4564): 16 µg/mL (≈ 10.1 µM) | MIC Streptococcus pneumoniae (GC 4565) ([3]; inoculum 5×10^5 CFU/mL, strain GC 4565): 8 µg/mL (≈ 5.05 µM) | MIC Escherichia coli (ATCC 25922) [4]: >64 µg/mL | MIC Escherichia coli (GC 4559) [4]: >64 µg/mL | MIC Escherichia coli (GC 4560) [4]: 16 µg/mL (≈ 10.1 µM)
